Literature values as cited in US7364752B1, “Solid dispersion pharamaceutical formulations” (Abbott Laboratories, priority 1999, dated 2008).

Conditions: PEG solid dispersion formulation

bioavailability: unable to improve the bioavailability
SMILES: O=C1N(Cc2ccc(CO)cc2)[C@H](Cc2ccccc2)[C@H](O)[C@@H](O)[C@@H](Cc2ccccc2)N1Cc1ccc(CO)cc1 [DMP 323]
